Measurements taken from the supplement of paper PMC11061612.

Key:
Assay in all cases: combination Emax (second highest fraction inhibited in the dose matrix, 72 h); higher = more inhibition; extreme values may be limits of the assay
[1] = tested on: 639-V (Bladder Carcinoma)
How it was run: (§1)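 Bliss excess equals the observed combination effect minus the expected value EA + EB − EA·EB, where EA and EB are the effects of each agent alone. Combination Emax is the second-highest inhibition within the matrix. Inhibition was scaled from CellTiter-Glo 2.0 luminescence, with 0 set by vehicle wells and 1 by blank wells, after 72 hours of two-drug dosing of cells plated in 1536-well plates.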

[2] = tested on: 8305C (Thyroid Gland Carcinoma)
How it was run: as §1

[3] = tested on: CAPAN-1 (Pancreatic Carcinoma)
How it was run: as §1

COLO-829 (Melanoma) = tested on: COLO-829 (Melanoma)
How it was run: as §1

[4] = tested on: CTB-1 (B-Cell Non-Hodgkin's Lymphoma)
How it was run: as §1

[5] = tested on: Hs-633T (Other Solid Carcinomas)
How it was run: as §1

[6] = tested on: KARPAS-231 (B-Cell Non-Hodgkin's Lymphoma)
How it was run: as §1

[7] = tested on: LU-139 (Small Cell Lung Carcinoma)
How it was run: as §1

[8] = tested on: MHH-PREB-1 (B-Cell Non-Hodgkin's Lymphoma)
How it was run: as §1

Mewo (Melanoma) = tested on: Mewo (Melanoma)
How it was run: as §1

NCI-H2461 (Mesothelioma) = tested on: NCI-H2461 (Mesothelioma)
How it was run: as §1

[9] = tested on: NCI-H747 (Colorectal Carcinoma)
How it was run: as §1

[10] = tested on: PCI-30 (Head and Neck Carcinoma)
How it was run: as §1

[11] = tested on: RKO (Colorectal Carcinoma)
How it was run: as §1

SH-4 (Melanoma) = tested on: SH-4 (Melanoma)
How it was run: as §1

[12] = tested on: SK-OV-3 (Ovarian Carcinoma)
How it was run: as §1

[13] = tested on: SU-DHL-6 (B-Cell Non-Hodgkin's Lymphoma)
How it was run: as §1

[14] = tested on: SUP-T1 (T-Lymphoblastic Leukemia)
How it was run: as §1

[15] = tested on: SW626 (Colorectal Carcinoma)
How it was run: as §1

[16] = tested on: TE-4 (Esophageal Squamous Cell Carcinoma)
How it was run: as §1

Row | Compound | combination Emax [1] | combination Emax [2] | combination Emax [3] | combination Emax (COLO-829 (Melanoma)) | combination Emax [4] | combination Emax [5] | combination Emax [6] | combination Emax [7] | combination Emax [8] | combination Emax (Mewo (Melanoma)) | combination Emax (NCI-H2461 (Mesothelioma)) | combination Emax [9] | combination Emax [10] | combination Emax [11] | combination Emax (SH-4 (Melanoma)) | combination Emax [12] | combination Emax [13] | combination Emax [14] | combination Emax [15] | combination Emax [16]
1 | CN(C)CCCOc1ccc(-c2ccc3ncc4c(c3c2)n(C2CCOCC2)c(=O)n4C)cn1 [AZD0156] + CCN(CCO)CCCOc1ccc2c(Nc3cc(CC(=O)Nc4cccc(F)c4)[nH]n3)ncnc2c1 [AZD2811] (first compound max 1 µM, 7x7, partner max 1 µM) | 0.179 | 0.29 | 0.137 | 0.069 | 0.501 | 0.373 | 0.563 | 0.279 | 0.154 | 0.153 | 0.195 | 0.167 | 0.192 | 0.213 | 0.247 | 0.138 | 0.478 | 0.366 | 0.0884 | 0.071
2 | COc1cccc2c1C(=O)c1c(O)c3c(c(O)c1C2=O)C[C@@](O)(C(=O)CO)C[C@@H]3O[C@H]1C[C@H](N)[C@H](O)[C@H](C)O1 [Doxorubicin] + Cc1cc2ncnn2cc1Nc1ncc2c(n1)n(C1CCOCC1)c(=O)n2C [AZD7648] (first compound max 1 µM, 7x7, partner max 10 µM) | 0.98 | 0.876 | 0.511 | 0.73 | 0.911 | 0.932 | 0.956 | 0.905 | 0.974 | 0.599 | 0.867 | 0.743 | 0.721 | 0.91 | 0.588 | 0.638 | 0.989 | 0.784 | 0.419 | 0.443
3 | Cc1c2c(nn1C)CSCc1cc(n(C)n1)CSc1cc(c3ccccc3c1)OCCCc1c(C(=O)O)n(C)c3c-2c(Cl)ccc13 [AZD5991] + C1CN(CCC1(C(=O)N[C@@H](CCO)C2=CC=C(C=C2)Cl)N)C3=NC=NC4=C3C=CN4 [Capivasertib] (first compound max 1 µM, 7x7, partner max 3 µM) | 0.177 | 0.319 | 0.203 | 0.222 | 0.42 | 0.216 | 1 | 0.268 | 0.101 | 0.199 | 0.464 | 0.392 | 0.237 | 0.292 | 0.332 | 0.36 | 1 | 0.503 | 0.25 | 0.81
4 | COc1cccc(OCCCN)c1-c1cc(Nc2cnc(C#N)cn2)n[nH]1 [Prexasertib] + CN(C)CCCOc1ccc(-c2ccc3ncc4c(c3c2)n(C2CCOCC2)c(=O)n4C)cn1 [AZD0156] (first compound max 1 µM, 7x7, partner max 1 µM) | 0.446 | 0.737 | 0.611 | 0.385 | 0.96 | 0.908 | 0.979 | 0.505 | 0.974 | 0.531 | 0.745 | 0.37 | 0.813 | 0.891 | 0.807 | 0.853 | 0.642 | 0.821 | 0.707 | 0.65
5 | CC(=O)Nc1cccc(-n2c(=O)n(C3CC3)c(=O)c3c(Nc4ccc(I)cc4F)n(C)c(=O)c(C)c32)c1 [Trametinib] + Cc1nc(-c2cn3c(n2)-c2ccc(-c4cnn(C(C)(C)C(N)=O)c4)cc2OCC3)n(C(C)C)n1 [Taselisib] (first compound max 1 µM, 7x7, partner max 10 µM) | 0.718 | 0.945 | 0.774 | 0.942 | 0.416 | 0.917 | 0.149 | 0.143 | 0.271 | 0.692 | 0.587 | 0.952 | 0.627 | 0.956 | 0.999 | 0.797 | 1 | 0.596 | 0.75 | 1
6 | CN(CCO)CC[C@H](CSc1ccccc1)Nc1ccc(S(=O)(=O)NC(=O)c2ccc(N3CCC([C@@H](O)c4ccccc4-c4ccc(Cl)cc4)CC3)cc2)cc1S(=O)(=O)C(F)(F)F [AZD4320] + Cc1cc2ncnn2cc1Nc1ncc2c(n1)n(C1CCOCC1)c(=O)n2C [AZD7648] (first compound max 1 µM, 7x7, partner max 10 µM) | 0.208 | 0.699 | 0.161 | 0.0921 | 0.317 | 0.614 | 1 | 0.937 | 0.119 | 0.194 | 0.293 | 0.387 | 0.178 | 0.21 | 0.16 | 0.305 | 0.97 | 0.416 | 0.577 | 0.173
7 | COc1cccc(OCCCN)c1-c1cc(Nc2cnc(C#N)cn2)n[nH]1 [Prexasertib] + O=C(c1cc(Cc2n[nH]c(=O)c3ccccc23)ccc1F)N1CCN(C(=O)C2CC2)CC1 [Olaparib] (first compound max 1 µM, 7x7, partner max 10 µM) | 0.868 | 0.785 | 0.595 | 0.281 | 0.876 | 0.854 | 0.974 | 0.442 | 0.866 | 0.505 | 0.652 | 0.422 | 0.548 | 0.874 | 0.611 | 0.713 | 0.653 | 0.79 | 0.64 | 0.654
8 | Cc1cc2ncnn2cc1Nc1ncc2c(n1)n(C1CCOCC1)c(=O)n2C [AZD7648] + O=C(c1cc(Cc2n[nH]c(=O)c3ccccc23)ccc1F)N1CCN(C(=O)C2CC2)CC1 [Olaparib] (first compound max 10 µM, 7x7, partner max 10 µM) | 0.182 | 0.31 | 0.237 | 0.119 | 0.331 | 0.313 | 0.269 | 0.131 | 0.232 | 0.138 | 0.278 | 0.241 | 0.198 | 0.242 | 0.179 | 0.173 | 0.346 | 0.465 | 0.13 | 0.167
9 | Cc1cc2ncnn2cc1Nc1ncc2c(n1)n(C1CCOCC1)c(=O)n2C [AZD7648] + C=CCn1c(=O)c2cnc(Nc3ccc(N4CCN(C)CC4)cc3)nc2n1-c1cccc(C(C)(C)O)n1 [AZD1775] (first compound max 10 µM, partner max 1 µM) | 0.425 | 0.7 | 0.5 | 0.214 | 0.905 | 0.748 | 0.979 | 0.615 | 0.823 | 0.427 | 0.659 | 0.55 | 0.375 | 0.678 | 0.447 | 0.535 | 0.753 | 0.834 | 0.513 | 0.431
10 | CN(C)CCCOc1ccc(-c2ccc3ncc4c(c3c2)n(C2CCOCC2)c(=O)n4C)cn1 [AZD0156] + C[C@@H]1COCCN1C2=NC(=NC(=C2)C3(CC3)[S@](=N)(=O)C)C4=C5C=CNC5=NC=C4 [AZD6738] (first compound max 1 µM, 7x7, partner max 10 µM) | 0.35 | 0.506 | 0.368 | 0.159 | 0.829 | 0.925 | 0.904 | 0.278 | 0.909 | 0.594 | 0.71 | 0.266 | 0.659 | 0.879 | 0.465 | 0.617 | 0.629 | 0.78 | 0.566 | 0.604
11 | CC1(C)CCC(CN2CCN(c3ccc(C(=O)NS(=O)(=O)c4ccc(NCC5CCOCC5)c([N+](=O)[O-])c4)c(Oc4cnc5[nH]ccc5c4)c3)CC2)=C(c2ccc(Cl)cc2)C1 [Venetoclax] + CN(C)CCCOc1ccc(-c2ccc3ncc4c(c3c2)n(C2CCOCC2)c(=O)n4C)cn1 [AZD0156] (first compound max 1 µM, 7x7, partner max 1 µM) | 0.202 | 0.369 | 0.184 | 0.21 | 0.242 | 0.266 | 0.816 | 0.374 | 0.14 | 0.547 | 0.525 | 0.305 | 0.149 | 0.381 | 0.279 | 0.239 | 0.904 | 0.616 | 0.111 | 0.179
12 | C=CCn1c(=O)c2cnc(Nc3ccc(N4CCN(C)CC4)cc3)nc2n1-c1cccc(C(C)(C)O)n1 [AZD1775] + C[C@@H]1COCCN1C2=NC(=NC(=C2)C3(CC3)[S@](=N)(=O)C)C4=C5C=CNC5=NC=C4 [AZD6738] (first compound max 1 µM, partner max 10 µM) | 0.457 | 0.681 | 0.49 | 0.129 | 0.944 | 0.937 | 0.98 | 0.721 | 0.948 | 0.71 | 0.764 | 0.706 | 0.696 | 0.943 | 0.56 | 0.755 | 0.922 | 0.882 | 0.743 | 0.805
